Measured values published in the NIST ThermoML archive (doi:10.1016/j.jct.2013.09.006).
± gives the expanded uncertainty stated by the source.

Tests used:
[1] = 101.33 kPa, Liquid; for viscosity: Capillary tube (Ostwald / Ubbelohde) method; for mass density: Vibrating tube method
[2] = refractive index (Na D-line) (dimensionless); settings: 101.33 kPa, Liquid, Standard Abbe refractometry

CCO [ethanol]
Settings	mass density, 298.15 K [kg/m3]	mass density, 303.15 K [kg/m3]	mass density, 308.15 K [kg/m3]	refractive index, 298.15 K	refractive index, 303.15 K	refractive index, 308.15 K	viscosity, 298.15 K [mPa·s]	viscosity, 303.15 K [mPa·s]	viscosity, 308.15 K [mPa·s]
[1]	785.9 ± 1.8	780.2 ± 1.8	776.5 ± 1.8	–	–	–	1.09 ± 0.02	0.95 ± 0.02	0.87 ± 0.02
[2]	–	–	–	1.3593 ± 0.0014	1.3573 ± 0.0014	1.3556 ± 0.0014	–	–	–
